Results published in patent publication US20070128217A1 (priority 2003, published 2007).

Legend:
[1] = system: rabbit serum obtained by immunizing a rabbit with the SARS-CoV strain Frankfurt 1; format: binding; set-up: Binding of a rabbit serum to linear peptides / Binding of a rabbit serum to looped peptides / Rabbit serum linear peptides / Rabbit serum looped peptides / Binding of a rabbit serum to linear peptides of protein N of SARS-CoV Urbani (Rabbit serum linear peptides) / Binding of a rabbit serum to looped/cyclic peptides of protein N of SARS-CoV Urbani (Rabbit serum looped peptides): unit not given here
[2] = system: antibodies in sera from SARS patients (sera 1a, 1b, 2, 6, 37, 62, London, SARS-yellow, SARS-green); format: binding, human; set-up: Binding of serum 6 to linear peptides of protein X1 of SARS-CoV Urbani / Binding of serum 37 to linear peptides of protein X1 of SARS-CoV Urbani / Binding of serum 6 to looped/cyclic peptide (PEPSCAN-ELISA) / Binding of serum 37 to looped/cyclic peptide (PEPSCAN-ELISA) / Binding of serum 37 to looped/cyclic peptides of protein X1 of SARS-CoV Urbani / Binding of serum 6 to linear peptides of protein X2 / Binding of serum 37 to linear peptides of protein X2 / Binding of serum 37 to looped/cyclic peptides of protein X2 of SARS-CoV Urbani / Binding of serum 6 to linear peptides of protein M of SARS-CoV Urbani / Binding of serum 37 to linear peptides of protein M of SARS-CoV Urbani / Binding of serum 6 to looped/cyclic peptides of protein M of SARS-CoV Urbani / Binding of serum 37 to looped/cyclic peptides of protein M of SARS-CoV Urbani / Binding of serum 6 to linear peptides of protein X3 of SARS-CoV Urbani / Binding of serum 37 to linear peptides of protein X3 of SARS-CoV Urbani / Binding of serum 37 to looped/cyclic peptides of protein X3 of SARS-CoV Urbani / Binding of serum 6 to linear peptides of protein X4 of SARS-CoV Urbani / Binding of serum 37 to linear peptides of protein X4 of SARS-CoV Urbani / Binding of serum 37 to looped/cyclic peptides of protein X4 of SARS-CoV Urbani / Binding of serum 6 to linear peptides of protein X5 of SARS-CoV Urbani / Binding of serum 37 to linear peptides of protein X5 of SARS-CoV Urbani / Binding of serum 37 to looped/cyclic peptides of protein X5 of SARS-CoV Urbani / Binding of serum 6 to linear peptides of protein N of SARS-CoV Urbani / Binding of serum 37 to linear peptides of protein N of SARS-CoV Urbani / Binding of serum 6 to linear peptide (PEPSCAN-ELISA) / Binding of serum 1a to looped/cyclic peptides of protein N of SARS-CoV Urbani / Binding of serum 1b to looped/cyclic peptides of protein N of SARS-CoV Urbani / Binding of serum 2 to looped/cyclic peptides of protein N of SARS-CoV Urbani / Binding of serum 6 to looped/cyclic peptides of protein N of SARS-CoV Urbani / Binding of serum 37 to looped/cyclic peptides of protein N of SARS-CoV Urbani / Binding of serum 62 to looped/cyclic peptides of protein N of SARS-CoV Urbani / Binding of serum London to looped/cyclic peptides of protein N of SARS-CoV Urbani / Binding of serum SARS-green to looped/cyclic peptides of protein N of SARS-CoV Urbani: unit not given here
[3] = system: control sera (pooled serum of ten healthy LUMC hospital workers; commercial negative donor pooled serum from the Dutch bloodbank); format: binding, human; set-up: Binding of Control serum LUMC to linear peptides / Binding of Control serum Blood-bank to linear peptides / Binding of Control serum LUMC to looped peptides / Binding of Control Serum Blood-Bank to Looped peptides / Binding of Control serum LUMC to linear peptides of the protein M of SARS-CoV Urbani / Binding of Control serum Blood-bank to linear peptides of the protein M of SARS-CoV Urbani / Binding of Control serum LUMC to looped peptides of the protein M of SARS-CoV Urbani / Binding of Control Serum Blood-Bank to Looped peptides of the protein M of SARS-CoV Urbani: unit not given here
[4] = system: recombinant human anti-SARS-CoV antibody 03-018; format: binding; set-up: Binding of antibody 03-018 to linear peptides of the N protein of SARS-CoV Urbani / Binding of antibody 03-018 to looped/cyclic peptides of the N protein of SARS-CoV Urbani: unit not given here

Sequence | Binding of a rabbit serum to linear peptides of protein N of SARS-CoV Urbani (Rabbit serum linear peptides) [1] | Binding of a rabbit serum to looped/cyclic peptides of protein N of SARS-CoV Urbani (Rabbit serum looped peptides) [1] | Binding of serum 1a to linear peptides of protein N of SARS-CoV Urbani [2] | Binding of serum 1a to looped/cyclic peptides of protein N of SARS-CoV Urbani [2] | Binding of serum 1b to linear peptides of protein N of SARS-CoV Urbani [2] | Binding of serum 1b to looped/cyclic peptides of protein N of SARS-CoV Urbani [2] | Binding of serum 2 to linear peptides of protein N of SARS-CoV Urbani [2] | Binding of serum 2 to looped/cyclic peptides of protein N of SARS-CoV Urbani [2] | Binding of serum 6 to linear peptides of protein N of SARS-CoV Urbani [2] | Binding of serum 6 to looped/cyclic peptides of protein N of SARS-CoV Urbani [2] | Binding of serum 37 to linear peptides of protein N of SARS-CoV Urbani [2] | Binding of serum 37 to looped/cyclic peptides of protein N of SARS-CoV Urbani [2] | Binding of serum 62 to linear peptides of protein N of SARS-CoV Urbani [2] | Binding of serum 62 to looped/cyclic peptides of protein N of SARS-CoV Urbani [2] | Binding of serum London to linear peptides of protein N of SARS-CoV Urbani [2] | Binding of serum London to looped/cyclic peptides of protein N of SARS-CoV Urbani [2] | Binding of serum SARS-green to linear peptides of protein N of SARS-CoV Urbani [2] | Binding of serum SARS-green to looped/cyclic peptides of protein N of SARS-CoV Urbani [2] | Binding of serum SARS-yellow to linear peptides of protein N of SARS-CoV Urbani [2] | Binding of serum SARS-yellow to looped/cyclic peptides of protein N of SARS-CoV Urbani [2] | other results
DGKMKELSPRWYFYY | 0.1 | 0.6 | 0.2 | 0.4 | 0.1 | 0.3 | 0.2 | 0.5 | 0.1 | 0.4 | 0.5 | 0.8 | 0.5 | 0.7 | 0.4 | 0.5 | 0.4 | 0.4 | 0.5 | 0.5 | Binding of Control Serum Blood-Bank to Looped peptides [3]: 0.8; Binding of Control serum Blood-bank to linear peptides [3]: 0.8; Binding of Control serum LUMC to linear peptides [3]: 0.6; Binding of Control serum LUMC to looped peptides [3]: 0.7; Binding of antibody 03-018 to linear peptides of the N protein of SARS-CoV Urbani [4]: 0.1; Binding of antibody 03-018 to looped/cyclic peptides of the N protein of SARS-CoV Urbani [4]: 0.2
DHIGTRNPNNNAATV | 0.1 | 0.5 | 0.3 | 0.5 | 0.1 | 0.4 | 0.3 | 0.8 | 0.2 | 0.5 | 0.7 | 1.1 | 0.7 | 0.8 | 0.5 | 0.7 | 0.5 | 0.5 | 0.7 | 0.6 | Binding of Control Serum Blood-Bank to Looped peptides [3]: 0.9; Binding of Control serum Blood-bank to linear peptides [3]: 0.8; Binding of Control serum LUMC to linear peptides [3]: 0.7; Binding of Control serum LUMC to looped peptides [3]: 1.0; Binding of antibody 03-018 to linear peptides of the N protein of SARS-CoV Urbani [4]: 0.1; Binding of antibody 03-018 to looped/cyclic peptides of the N protein of SARS-CoV Urbani [4]: 0.3
DKKKKTDEAQPLPQR | 0.1 | 0.3 | 0.2 | 0.2 | 0.1 | 0.1 | 0.2 | 0.2 | 0.2 | 0.1 | 0.6 | 0.4 | 0.6 | 0.3 | 0.5 | 0.3 | 0.5 | 0.3 | 0.6 | 0.3 | Control Serum Blood-Bank Looped peptides [3]: 0.5; Control serum Blood-bank linear peptides [3]: 0.8; Control serum LUMC linear peptides [3]: 0.6; Control serum LUMC looped peptides [3]: 0.4; Binding of antibody 03-018 to linear peptides of the N protein of SARS-CoV Urbani [4]: 0.1; Binding of antibody 03-018 to looped/cyclic peptides of the N protein of SARS-CoV Urbani [4]: 0.2
